Measured values published in ChEMBL document CHEMBL4673346, “Discovery of a benzimidazole series as the first highly potent and selective ACSL1 inhibitors” (Bioorg Med Chem Lett, 2021).
Converted amounts (≈) assume the structure as drawn.

Columns and labels:
[1] = target: T1, Long-chain-fatty-acid--CoA ligase 6 (Homo sapiens, UniProt Q9UKU0); assay: Inhibition of recombinant human ACSL6 assessed as reduction in […] prodution incubated for 60 mins in presence of Coenzyme A, ATP and MgCl2 by MALDI-TOF MS analysis
T1 sequence (Q9UKU0 whole entry): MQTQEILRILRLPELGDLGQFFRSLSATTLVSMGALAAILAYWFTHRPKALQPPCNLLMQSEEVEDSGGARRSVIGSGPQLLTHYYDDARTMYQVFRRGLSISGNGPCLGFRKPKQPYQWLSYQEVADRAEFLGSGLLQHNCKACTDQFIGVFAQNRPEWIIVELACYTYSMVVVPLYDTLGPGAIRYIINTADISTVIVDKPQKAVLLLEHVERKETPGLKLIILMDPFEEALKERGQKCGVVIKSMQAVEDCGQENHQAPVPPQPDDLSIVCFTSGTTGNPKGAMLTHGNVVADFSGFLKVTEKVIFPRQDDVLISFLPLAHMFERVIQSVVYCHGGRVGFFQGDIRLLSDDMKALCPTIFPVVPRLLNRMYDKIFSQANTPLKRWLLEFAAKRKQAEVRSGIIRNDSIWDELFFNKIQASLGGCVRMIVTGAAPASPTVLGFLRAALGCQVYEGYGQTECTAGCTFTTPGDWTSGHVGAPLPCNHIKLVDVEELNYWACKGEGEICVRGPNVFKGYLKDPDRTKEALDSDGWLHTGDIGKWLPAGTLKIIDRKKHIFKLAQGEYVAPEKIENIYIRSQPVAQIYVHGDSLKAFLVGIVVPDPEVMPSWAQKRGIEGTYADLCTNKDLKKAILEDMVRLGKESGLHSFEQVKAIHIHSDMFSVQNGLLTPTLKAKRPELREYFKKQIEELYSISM

[2] = target: T2, Long-chain-fatty-acid--CoA ligase 1 (Homo sapiens, UniProt P33121); assay: Inhibition of recombinant human ACSL1 assessed as reduction in […] prodution incubated for 90 mins in presence of Coenzyme A, ATP and MgCl2 by MALDI-TOF MS analysis
T2 sequence (P33121 whole entry): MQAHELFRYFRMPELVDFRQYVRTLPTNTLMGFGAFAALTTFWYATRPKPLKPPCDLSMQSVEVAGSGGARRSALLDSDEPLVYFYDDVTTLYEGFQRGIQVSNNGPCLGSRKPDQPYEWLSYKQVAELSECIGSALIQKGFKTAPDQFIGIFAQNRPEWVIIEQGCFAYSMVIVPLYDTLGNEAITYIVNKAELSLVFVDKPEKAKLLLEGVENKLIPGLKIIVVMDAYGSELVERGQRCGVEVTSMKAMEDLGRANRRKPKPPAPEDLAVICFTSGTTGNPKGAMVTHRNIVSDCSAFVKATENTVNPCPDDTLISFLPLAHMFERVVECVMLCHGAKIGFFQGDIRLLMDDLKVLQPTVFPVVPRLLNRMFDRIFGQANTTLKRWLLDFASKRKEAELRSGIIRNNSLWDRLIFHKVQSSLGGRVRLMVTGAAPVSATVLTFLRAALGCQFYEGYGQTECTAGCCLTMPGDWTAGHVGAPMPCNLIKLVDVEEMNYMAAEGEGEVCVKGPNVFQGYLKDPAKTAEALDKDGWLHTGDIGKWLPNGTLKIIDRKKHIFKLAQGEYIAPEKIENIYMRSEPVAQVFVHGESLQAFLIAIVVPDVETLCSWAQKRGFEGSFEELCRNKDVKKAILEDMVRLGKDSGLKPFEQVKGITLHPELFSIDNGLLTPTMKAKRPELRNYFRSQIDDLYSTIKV

[3] = Half life in rat at 0.5 mg/kg, iv; type: ADME, organism-based; conditions: in vivo
[4] = Solubility of compound in pH 6.8 with TCA; type: physicochemical
[5] = Oral bioavailability in rat at 1 mg/kg; type: ADME, organism-based; conditions: in vivo
[6] = Total clearance in rat at 0.5 mg/kg, iv; type: ADME, organism-based; conditions: in vivo
[7] = Cmax in rat at 1 mg/kg, po; type: ADME, organism-based; set-up: route oral, dose 1 mg/kg; conditions: in vivo
[8] = Metabolic stability in rat liver microsomes assessed as compound remaining after 30 mins; type: ADME, Microsome; conditions: read-out: Stabilty
[9] = target: Fatty acid CoA ligase Acsl3 (Homo sapiens, UniProt O95573); assay: Inhibition of recombinant human ACSL3 assessed as reduction in […] prodution incubated for 90 mins in presence of Coenzyme A, ATP and MgCl2 by MALDI-TOF MS analysis
Chain of Fatty acid CoA ligase Acsl3 (O95573 whole entry): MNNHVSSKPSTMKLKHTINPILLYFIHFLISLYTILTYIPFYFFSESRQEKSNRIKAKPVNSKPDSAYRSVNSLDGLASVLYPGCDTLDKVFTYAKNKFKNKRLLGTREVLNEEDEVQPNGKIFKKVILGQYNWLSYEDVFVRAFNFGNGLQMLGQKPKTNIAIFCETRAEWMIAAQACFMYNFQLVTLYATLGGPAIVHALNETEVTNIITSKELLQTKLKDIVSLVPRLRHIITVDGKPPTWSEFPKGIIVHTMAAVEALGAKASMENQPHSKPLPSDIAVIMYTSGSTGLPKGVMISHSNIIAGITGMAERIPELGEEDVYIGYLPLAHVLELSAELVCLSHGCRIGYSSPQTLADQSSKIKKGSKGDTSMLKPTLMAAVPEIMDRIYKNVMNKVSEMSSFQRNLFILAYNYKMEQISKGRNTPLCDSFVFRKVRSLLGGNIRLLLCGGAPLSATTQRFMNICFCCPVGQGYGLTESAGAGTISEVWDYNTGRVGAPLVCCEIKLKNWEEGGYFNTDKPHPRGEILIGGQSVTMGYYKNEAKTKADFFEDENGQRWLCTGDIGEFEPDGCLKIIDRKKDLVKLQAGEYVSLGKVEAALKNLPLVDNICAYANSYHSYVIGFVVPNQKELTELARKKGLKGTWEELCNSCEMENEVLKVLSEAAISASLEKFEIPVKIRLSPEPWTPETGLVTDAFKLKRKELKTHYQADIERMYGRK

[10] = Metabolic stability in mouse liver microsomes assessed as compound remaining after 30 mins; type: ADME, Microsome; conditions: read-out: Stabilty
[11] = Inhibition of insulin/isobutyl-1-methylxanthin/dexamethasone-induced adipocytes differentiation in mouse 3T3-L1 cells by measuring 14C-triglyceride levels incubated for 1 hrs followed by oleic acid addition and measured after 10 mins by microbeta scintillation counting method; type: functional; conditions: 3T3-L1, 1.167 h, time 70 min
[12] = target: Cytochrome P450 2C9 (Homo sapiens, UniProt P11712); assay: Inhibition of CYP2C9 (unknown origin); type: ADME
Chain of Cytochrome P450 2C9 (P11712 whole entry): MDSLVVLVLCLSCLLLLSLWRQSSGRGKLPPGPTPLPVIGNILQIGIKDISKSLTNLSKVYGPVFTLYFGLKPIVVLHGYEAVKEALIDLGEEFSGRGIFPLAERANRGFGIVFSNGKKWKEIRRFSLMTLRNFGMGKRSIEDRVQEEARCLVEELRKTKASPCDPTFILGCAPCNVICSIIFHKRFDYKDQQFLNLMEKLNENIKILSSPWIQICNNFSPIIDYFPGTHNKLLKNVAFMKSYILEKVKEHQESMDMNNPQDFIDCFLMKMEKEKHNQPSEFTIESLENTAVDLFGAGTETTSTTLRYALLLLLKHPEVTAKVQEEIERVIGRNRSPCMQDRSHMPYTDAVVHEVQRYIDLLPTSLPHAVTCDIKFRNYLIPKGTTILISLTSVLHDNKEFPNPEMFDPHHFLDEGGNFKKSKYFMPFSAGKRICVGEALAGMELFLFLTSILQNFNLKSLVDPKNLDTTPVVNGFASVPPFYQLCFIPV

Cc1cccc(Cc2nc3cc(O[C@H]4CC[C@@H](C(=O)O)CC4)ccc3n2C)c1
IC50 [1]: > 200000 nM | IC50 [2]: 42 nM | half-life [3]: 2.8 h | solubility [4]: 24 µg/mL (≈ 63.4 µM) | bioavailability [5]: 119% | clearance [6]: 1.75 mL/min/kg | Cmax [7]: 1110 ng/mL | remaining at 0.5 h [8]: 93% | IC50 [9]: > 200000 nM | remaining at 0.5 h [10]: 99% | IC30 [11]: 39 nM | IC50 [12]: > 20000 nM
